# Ends that are not written are not given here.
# System: INS-1E cells
# Experiment: Glucose-stimulated insulin secretion (GSIS) in INS-1E cells
# Type: cell-based, rat
# Procedure: FIG. 3, comprising FIG. 3A through FIG. 3D, depicts the evaluation of the biological activity of HSA-112 in INS-1E cells. FIG. 3A depicts a dose-response analysis of the effect of HSA-112 on the rate of insulin secretion in INS-1E cells. The INS-1E cells were grown and treated with increasing doses of HSA-112 for 24 h, as described in Methods. Subsequently, cells were mixed with different concentrations of HSA-112, as indicated in the graph (red columns), PEG2000 (green columns), and free peptide (blue columns) and were seeded in 12-well plates. After 24 h the cells were taken to a GSIS in the presence of 2.5 mM (weak color bars) or 16.7 mM (strong color bars) glucose. FIG. 3B depicts the time-course analysis of the effect of HSA-112 on the rate of insulin secretion in INS-1E cells. The INS-1E cells were prepared for the experiment as described above with 50 μM of HSA-112, PEG2000, or free peptide. After incubation, as indicated in the graph, the cells were taken to a GSIS as described above. FIG. 3C depicts the cell protective effect of HSA-112 under oxidative stress conditions. Cells were prepared for the experiment as described in Methods. Trolox was used as a positive control at a concentration of 100 μM. The oxidative stress was induced in the tissue culture, as described in Methods. Standard MTT analysis (also described in Methods) was used for evaluating the effect of HSA-112 on cell viability. FIG. 3D depicts INS-1E cell proliferation. Cells were prepared for the experiment as described above. After 24 h the cells were colored by trypan blue and counted as described in Methods *p<0.05, n=6. MEAN±SE.
# FIG. 7, comprising FIG. 7A through FIG. 7G, depicts the evaluation of the biological activity of HSA-28P in INS-1E cells. FIG. 7A depicts dose-response analysis of the effect of HSA-28P on the rate of insulin secretion in INS-1E cells. The INS-1E cells were grown and trypsinized as described in Methods. Subsequently, cells were mixed with the indicated concentrations of HSA-28P (red columns), non-relevant peptide nanoparticles (NRPNP, green columns), and naked nanoparticles (NP, blue columns) and were seeded in 12-well plates. After 24 h the cells were taken to a GSIS in the presence of 2.5 mM (weak color bars) or 16.7 mM (strong color bars) glucose. FIG. 7B depicts time-course analysis of the effect of HSA-28P on the rate of insulin secretion in INS-1E cells. The INS-1E cells were prepared for the experiment as described above with 1.34 μM of both HSA-28P or NRPNP, and 0.76 μg/ml of NP. After incubation for the time indicated in the graph, the cells were taken to a GSIS as described in Methods. FIG. 7C depicts the measurement of insulin content. The RIA-assay was performed for INS-1E lysates. FIG. 7D depicts the Effect of HSA-28P on the cells viability under oxidative stress conditions. INS-1E cells were incubated for 24 h with a medium supplemented with HSA-28P (3 μM), or HSA-28P1/2 (1.5 μM), or NPs covered by phantom random peptide (PPNP, 3 μM), or NP (0.76 μg/ml), or HSA-28 (3 μM) and trolox, as a positive antioxidant control (1 mM). After the incubation time, 50 mU/ml of glucose oxidase (GO) was added for an additional 1.15 h. Upon completion of the experiments, a standard MTT assay was conducted as described in Methods. Cell viability is presented as a percentage in comparison to non-treated cells. FIG. 7E depicts the effect of HSA-28P on the cell proliferation rate. Experiments were conducted on INS-1E cells that were seeded in 6-well plates. INS-1E cells were treated as described in Panel D. Cells were detached by trypsin and counted as described in Methods and then were visualized with a Cells Sense Live Imaging microscope. FIG. 7F depicts light microscope images of untreated cells. FIG. 7G depicts light microscope images of cells that were treated with HSA-28P. *p<0.05, n=3. MEAN±SE. […]
substance,measurement,setting,value
"HSA-112: HSA-28 dimer formed by bridging two HSA-28 monomers via amide bond formation with active ester PEG2,000 (QQGEFLNYD-NH2; not fully specified (N-terminus); also: dimer of two HSA-28 monomers bridged via amide bonds with active ester PEG2000)",duration of the increase in insulin secretion,50 μM,24 h
same,time after which a significant increase in insulin secretion was induced,50 μM,6 h
same,time of maximal stimulatory effect,50 μM,18 h
same,maximal stimulatory effect on GSIS parameters,"50 μM, after 18 h",twofold elevation of GSIS parameters
same,effect on GSIS,"INS-1E cells, 2.5 mM or 16.7 mM glucose",dose-dependently increased GSIS
